For 18 compounds, EC50 results are on record in patent publication US20240400591A1 (Jacobio Pharmaceuticals Co., Ltd., priority 2021, published 2024).

As usually defined, the EC50 is the concentration needed to bring the measured effect to its halfway point. High values mean a less potent agent, low ones a more potent agent.

This assay deals with T1, His-p53 Y220C (94-294) protein (Homo sapiens, UniProt P04637, Y220C).
T1 construct: His-p53 Y220C (94-294) protein
Briefly: In vitro DNA binding assay (HTRF). In kind it is biochemical. The settings on record: % activation normalized to 2 μM Ref-1a high control. (In general: Time-resolved FRET reads energy transfer from a long-lived donor to a nearby acceptor.)
As to `COCCOc1cc(S(C)(=O)=O)ccc1NCC#Cc1sc2c(NC3CCN(C)CC3)cccc2c1CC(F)(F)F` [Example 14, N-[2-[3-[2-(2-methoxyethoxy)-4-methylsulfonyl-anilino]prop-1-ynyl]-3-(2,2,2-trifluoroethyl)benzothiophen-7-yl]-1-methyl-piperidin-4-amine], the response was half-maximal at 199 nM (EC50).

On to `COc1cc(S(C)(=O)=O)ccc1NCC#Cc1sc2c(NC3CCCN(C)CC3)cccc2c1CC(F)(F)F` (stereo not drawn) [Example 55, N-(2-(3-((2-methoxy-4-(methylsulfonyl)phenyl)amino)prop-1-yn-1-yl)-3-(2,2,2-trifluoroethyl)benzo[b]thiophen-7-yl)-1-methylazepan-4-amine], for which the EC50 came out at 122 nM.

The compound `COc1cc(P(C)(C)=O)ccc1NCC#Cc1sc2c(N[C@@H]3CCN(C4CCS(=O)(=O)CC4)C[C@@H]3F)cccc2c1CC(F)(F)F` (relative stereo) [Example 93, (Z)—N-[2-[3-(4-dimethylphosphoryl-2-methoxy-anilino)prop-1-ynyl]-3-(2,2,2-trifluoroethyl)benzothiophen-7-yl]-1-(1,1-dioxothian-4-yl)-3-fluoro-piperidin-4-amine] returned an EC50 of 151 nM. For `COc1cc(S(C)(=O)=O)ccc1NCC#Cc1sc2c(NC3CC4CC3CN4C)cccc2c1CC(F)(F)F` (stereo not drawn) [Example 27, N-(2-(3-((2-methoxy-4-(methylsulfonyl)phenyl)amino)prop-1-yn-1-yl)-3-(2,2,2-trifluoroethyl)benzo[b]thiophen-7-yl)-2-methyl-2-azabicyclo[2.2.1]heptan-5-amine] the value was 235 nM; for `CN1CC[C@@H](Nc2cccc3c(CC(F)(F)F)c(C#CCNc4ccc(P(C)(C)=O)nc4C#N)sc23)[C@@H](F)C1` [Example 224, 6-(dimethylphosphoryl)-3-((3-(7-(((3S,4R)-3-fluoro-1-methylpiperidin-4-yl)amino)-3-(2,2,2-trifluoroethyl)benzo[b]thiophen-2-yl)prop-2-yn-1-yl)amino)picolinonitrile], 87 nM; for `CN1CC[C@@H](Nc2cccc3c(CC(F)(F)F)c(C#CCNc4ccc(S(C)(=O)=O)cc4P(C)(C)=O)sc23)[C@@H](F)C1` [Example 171, (2-((3-(7-(((3S,4R)-3-fluoro-1-methylpiperidin-4-yl)amino)-3-(2,2,2-trifluoroethyl)benzo[b]thiophen-2-yl)prop-2-yn-1-yl)amino)-5-(methylsulfonyl)phenyl)dimethylphosphine oxide], 178 nM. In turn, `COc1cc(S(C)(=O)=O)c(F)cc1NCC#Cc1sc2c(NC3CCN(C)CC3)cccc2c1CC(F)(F)F` [Example 7, N-(2-(3-((5-fluoro-2-methoxy-4-(methylsulfonyl)phenyl)amino)prop-1-yn-1-yl)-3-(2,2,2-trifluoroethyl)benzo[b]thiophen-7-yl)-1-methylpiperidin-4-amine] registered an EC50 of 200 nM. `CN1CCC(Nc2cccc3c(CC(F)(F)F)c(C#CCNc4ccc(P(C)(C)=O)cc4)sc23)CC1` [Example 9, dimethyl(4-((3-(7-((1-methylpiperidin-4-yl)amino)-3-(2,2,2-trifluoroethyl)benzo[b]thiophen-2-yl)prop-2-yn-1-yl)amino)phenyl)phosphine oxide]: the concentration giving a half-maximal response (EC50) came out at 114 nM. Under `COc1cc(C(=O)N2CCOCC2)ccc1NCC#Cc1sc2c(NC3CCN(C)CC3F)cccc2c1CC(F)(F)F` (stereo not drawn) [Example 50, (4-((3-(7-(((Z)-3-fluoro-1-methylpiperidin-4-yl)amino)-3-(2,2,2-trifluoroethyl)benzo[b]thiophen-2-yl)prop-2-yn-1-yl)amino)-3-methoxyphenyl)(morpholino)methanone] stands 86 nM; under `COc1cc(P(C)(C)=O)ccc1NCC#Cc1sc2c(NC3CCN(C)CC3C#N)cccc2c1CC(F)(F)F` (stereo not drawn) [Example 90, 4-((2-(3-((4-(dimethylphosphoryl)-2-methoxyphenyl)amino)prop-1-yn-1-yl)-3-(2,2,2-trifluoroethyl)benzo[b]thiophen-7-yl)amino)-1-methylpiperidine-3-carbonitrile], 272 nM.

The compound `CCN1CC[C@@H](Nc2cccc3c(CC(F)(F)F)c(C#CCNc4ccc(P(C)(C)=O)cc4OC)sc23)[C@@H](F)C1` (racemic) [Example 100, (4-((3-(7-(((Z)-1-ethyl-3-fluoropiperidin-4-yl)amino)-3-(2,2,2-trifluoroethyl)benzo[b]thiophen-2-yl)prop-2-yn-1-yl)amino)-3-methoxyphenyl)dimethylphosphine oxide] returned an EC50 of 40 nM. For `CN1CCC(Nc2cccc3c(CC(F)(F)F)c(C#CCNc4ccc(S(C)(=O)=O)cc4OCF)sc23)CC1` [Example 11, N-(2-(3-((2-(fluoromethoxy)-4-(methylsulfonyl)phenyl)amino)prop-1-yn-1-yl)-3-(2,2,2-trifluoroethyl)benzo[b]thiophen-7-yl)-1-methylpiperidin-4-amine] the value was 114 nM; for `COc1cc(C(=O)N2CCN(C)CC2)ccc1NCC#Cc1sc2c(NC3CCN(C)CC3F)cccc2c1CC(F)(F)F` (stereo not drawn) [Example 49, (4-((3-(7-(((Z)-3-fluoro-1-methylpiperidin-4-yl)amino)-3-(2,2,2-trifluoroethyl)benzo[b]thiophen-2-yl)prop-2-yn-1-yl)amino)-3-methoxyphenyl)(4-methylpiperazin-1-yl)methanone], 38 nM; for `CNC(=O)c1ccc(NCC#Cc2sc3c(N[C@@H]4CCN(C)C[C@@H]4F)cccc3c2CC(F)(F)F)c(C#N)c1` (racemic) [Example 95, 3-cyano-4-((3-(7-(((Z)-3-fluoro-1-methylpiperidin-4-yl)amino)-3-(2,2,2-trifluoroethyl)benzo[b]thiophen-2-yl)prop-2-yn-1-yl)amino)-N-methylbenzamide], 133 nM. Consider `CN1CCC(Nc2cccc3c(CC(F)(F)F)c(C#CCNc4cccc5c(C6CCNCC6)c[nH]c45)sc23)CC1` [Example 30, N-(3-(7-((1-methylpiperidin-4-yl)amino)-3-(2,2,2-trifluoroethyl)benzo[b]thiophen-2-yl)prop-2-yn-1-yl)-3-(piperidin-4-yl)-1H-indol-7-amine], for which a half-maximal response (EC50) required 452 nM. Under `COCCN1CC[C@@H](Nc2cccc3c(CC(F)(F)F)c(C#CCNc4ccc(P(C)(C)=O)cc4OC)sc23)[C@@H](F)C1` (racemic) [Example 88, (4-((3-(7-(((Z)-3-fluoro-1-(2-methoxyethyl)piperidin-4-yl)amino)-3-(2,2,2-trifluoroethyl)benzo[b]thiophen-2-yl)prop-2-yn-1-yl)amino)-3-methoxyphenyl)dimethylphosphine oxide] stands 404 nM; under `COCCCN1CCC(Nc2cccc3c(CC(F)(F)F)c(C#CCNc4ccc(S(C)(=O)=O)cc4OC)sc23)CC1` [Example 20, N-[2-[3-(2-methoxy-4-methylsulfonyl-anilino)prop-1-ynyl]-3-(2,2,2-trifluoroethyl)benzothiophen-7-yl]-1-(3-methoxypropyl)piperidin-4-amine], 188 nM. Under `CSc1c(NCC#Cc2sc3c(N[C@@H]4CCN(C)C[C@@H]4F)cccc3c2CC(F)(F)F)ccc(P(C)(C)=O)c1F` [Example 221, (2-fluoro-4-((3-(7-(((3S,4R)-3-fluoro-1-methylpiperidin-4-yl)amino)-3-(2,2,2-trifluoroethyl)benzo[b]thiophen-2-yl)prop-2-yn-1-yl)amino)-3-(methylthio)phenyl)dimethylphosphine oxide] stands 169 nM.
